{"source": "patent US20220195046A1", "about": "“METHODS OF TREATING TUMOR” (Bristol-Myers Squibb Company, priority 2019, published 2022)", "key": {"[1]": {"system": "unresectable stage III or IV melanoma without a BRAF mutation", "test": "Clinical trial NCT01721772: nivolumab vs dacarbazine in previously untreated melanoma without BRAF mutation", "type": "in vivo, human", "conditions": "3-year follow up, previously untreated BRAF wildtype advanced melanoma", "method": "The present example reports data collected from two clinical trials: NCT01721772 and NCT01844505. In NCT01721772, 418 subjects with confirmed, unresectable, previously untreated stage III or IV melanoma without a BRAF mutation were randomly assigned in a 1:1 ratio to receive by means of intravenous infusion either 3 mg of nivolumab per kilogram of body weight every 2 weeks, plus a dacarbazine-matched placebo every 3 weeks (n=210, 206 treated), or 1000 mg of dacarbazine per square meter of body-surface area every 3 weeks, plus a nivolumab-matched placebo every 2 weeks (n=208, 205 treated). Randomization was stratified according to tumor PD-L1 status (positive vs. negative or indeterminate) and metastasis stage (M0, M1a, or M1b vs. M1c, defined according to the tumor-node-metastasis system of the American Joint Committee on Cancer and the International Union against Cancer).\nThe primary end point was overall survival. Secondary end points included investigator-assessed progression-free survival, objective response rate, tumor PD-L1 expression, and health related quality of life. Exploratory endpoints included safety, pharmacokinetics, and biomarker analysis."}, "[2]": {"system": "unresectable stage III or IV melanoma", "test": "Clinical trial NCT01844505: nivolumab, nivolumab plus ipilimumab, or ipilimumab in previously untreated melanoma", "type": "in vivo, human", "conditions": "4-year follow up, first-line, advanced melanoma", "method": "In NCT01844505, 945 previously untreated patients with unresectable stage III or IV melanoma were randomly assigned in a 1:1:1 ratio to receive one of the following regimens: (i) 3 mg of nivolumab per kilogram of body weight every 2 weeks (plus ipilimumab-matched placebo) (n=316, 313 treated); (ii) 1 mg of nivolumab per kilogram every 3 weeks plus 3 mg of ipilimumab per kilogram every 3 weeks for 4 doses, followed by 3 mg of nivolumab per kilogram every 2 weeks for cycle 3 and beyond (n=314, 313 treated); or 3 mg of ipilimumab per kilogram every 3 weeks for 4 doses (plus nivolumab-matched placebo) (n=315, 311 treated) (FIG. 14). Both nivolumab and ipilimumab were administered by means of intravenous infusion.\nRandomization was stratified according to tumor PD-L1 status (positive vs. negative or indeterminate), BRAF mutation status (V600 mutation-positive vs. wild-type), and American Joint Committee on Cancer metastasis stage (M0, M1a, or M1b vs. M1c). Treatment continued until disease progression (as defined by RECIST, version 1.1), development of unacceptable toxic events, or withdrawal of consent.\nProgression-free survival and overall survival were coprimary endpoints. Secondary endpoints included objective response rate, tumor PD-L1 expression, and health related quality of life. Exploratory endpoints included safety, pharmacokinetics, and biomarker analysis."}, "[3]": {"conditions": "monotherapy, every two weeks; cited from earlier work"}, "[4]": {"system": "advanced hepatocellular carcinoma (HCC)", "test": "Clinical Trial NCT01658878: nivolumab in advanced hepatocellular carcinoma, SOR-naive and SOR-experienced cohorts 1 and 2", "type": "in vivo, human", "method": "Cohort 1 comprised 80 SOR-naïve subjects, and Cohort 2 comprised 182 SOR-experienced subjects. Eleven subjects in Cohort 1 and 37 subjects in Cohort 2 were administered 0.1-10 mg/kg nivolumab as part of a dose-escalation analysis. Sixty-nine subject in Cohort 1 and 145 subjects in cohort 2 were administered 3 mg/kg nivolumab as part of a dose-expansion analysis. Following initial treatment, 154 subjects in Cohort 2 (9 subject from the dose-escalation study and 145 subjects from the dose-expansion study) were administered maintenance nivolumab at 3 mg/kg.\nThe primary endpoints of Clinical Trial NCT01658878 were safety and tolerability (dose-escalation) as well as objected response rate (ORR; dose-expansion). Secondary endpoints included ORR (dose-escalation), disease control rate, time to response, duration of response, and overall survival. Exploratory endpoints included biomarker assessments, which are discussed here. […]"}, "[5]": {"system": "PD-L1, PD-1, T-cell markers (CD3, CD4, CD8, FOXP3), macrophage markers (CD68, CD163)", "test": "IHC biomarker assessment of pretreatment HCC tumor samples vs BOR and overall survival (NCT01658878)", "parameters": "species or system human", "conditions": "for Objective response rate, % (95% CI): BOR", "method": "Pretreatment tumor samples (fresh or archival) were obtained from patients in the escalation and expansion phases receiving 3 mg/kg nivolumab (saved for IHC) or 0.1-10 mg/kg nivolumab (saved for RNA sequencing).\nSamples were analyzed using (i) IHC to assess PD-L1, PD-1, T-cell markers (CD3, CD4, CD8, FOXP3), and macrophage markers (CD68, CD163); and (ii) RNA sequencing to assess tumor inflammatory signatures. Biomarkers were assessed for their association with clinical outcomes including BOR by blinded independent review committee (per RECIST v1.1) and overall survival. Analyses were performed using the standard Limma and Cox regression framework."}, "[6]": {"conditions": "tumor cell PD-L1 <1%, SOR-experienced population n = 137"}, "[7]": {"conditions": "tumor cell PD-L1 <1%, overall population (SOR-naïve and SOR-experienced) n = 195"}, "[8]": {"conditions": "tumor cell PD-L1 ≥1%, SOR-experienced population n = 137"}, "[9]": {"conditions": "tumor cell PD-L1 ≥1%, overall population (SOR-naïve and SOR-experienced) n = 195"}}}
{"compound": "CN(C)/N=N/c1[nH]cnc1C(N)=O", "note": "[dacarbazine]", "values": [{"measurement": "ORR, % (95% CI)", "setting": "[1]", "result": 14, "unit": "%"}, {"measurement": "median OS, months (95% CI)", "setting": "[1]", "result": "11.2 (9.6-13.0) months"}, {"measurement": "median PFS, months (95% CI)", "setting": "[1]", "result": "2.2 (2.1-2.5) months"}]}
{"compound": "ipilimumab", "values": [{"measurement": "ORRb, % (95% CI)", "setting": "[2]", "result": 19, "unit": "%"}, {"measurement": "median OS, months (95% CI)", "setting": "[2]", "result": "19.9 (16.9-24.6) months"}, {"measurement": "median PFS, months (95% CI)", "setting": "[2]", "result": "2.9 (2.8-3.2) months"}]}
{"compound": "nivolumab", "values": [{"measurement": "maximum tolerated dose (MTD), not reached at highest dose", "setting": "[3]", "result": "> 10", "unit": "mg/kg"}, {"measurement": "ORR, % (95% CI)", "setting": "[1]", "result": 43, "unit": "%"}, {"measurement": "median OS, months (95% CI)", "setting": "[1]", "result": "37.5 (25.5—NR) months"}, {"measurement": "median PFS, months (95% CI)", "setting": "[1]", "result": "5.1 (3.5-12.2) months"}, {"measurement": "ORR", "setting": "[4]", "result": 14.3, "unit": "%"}, {"measurement": "subjects with duration of response (DOR) of at least 12 months", "setting": "[4]", "result": 50, "unit": "%"}, {"measurement": "Complete response, n (%)", "setting": "[5]; [6]", "result": "4 (3.6) n (%)"}, {"measurement": "Partial response, n (%)", "setting": "[5]; [6]", "result": "10 (9) n (%)"}, {"measurement": "Progressive disease, n (%)", "setting": "[5]; [6]", "result": "42 (38.1) n (%)"}, {"measurement": "Stable disease, n (%)", "setting": "[5]; [6]", "result": "49 (44.5) n (%)"}, {"measurement": "Objective response rate, % (95% CI)", "setting": "[5]; [6]", "result": "12.7 (7.6-20.3) %"}, {"measurement": "Complete response, n (%)", "setting": "[5]; [7]", "result": "6 (3.7) n (%)"}, {"measurement": "Partial response, n (%)", "setting": "[5]; [7]", "result": "19 (11.9) n (%)"}, {"measurement": "Progressive disease, n (%)", "setting": "[5]; [7]", "result": "59 (37.1) n (%)"}, {"measurement": "Stable disease, n (%)", "setting": "[5]; [7]", "result": "66 (41.5) n (%)"}, {"measurement": "Objective response rate, % (95% CI)", "setting": "[5]; [7]", "result": "15.7 (10.8-22.2) %"}, {"measurement": "Complete response, n (%)", "setting": "[5]; [8]", "result": "1 (3.7) n (%)"}, {"measurement": "Partial response, n (%)", "setting": "[5]; [8]", "result": "6 (22.2) n (%)"}, {"measurement": "Progressive disease, n (%)", "setting": "[5]; [8]", "result": "10 (37) n (%)"}, {"measurement": "Stable disease, n (%)", "setting": "[5]; [8]", "result": "8 (29.6) n (%)"}, {"measurement": "Objective response rate, % (95% CI)", "setting": "[5]; [8]", "result": "25.9 (12.9-44.9) %"}, {"measurement": "Complete response, n (%)", "setting": "[5]; [9]", "result": "2 (5.5) n (%)"}, {"measurement": "Partial response, n (%)", "setting": "[5]; [9]", "result": "8 (22.2) n (%)"}, {"measurement": "Progressive disease, n (%)", "setting": "[5]; [9]", "result": "15 (41.6) n (%)"}, {"measurement": "Stable disease, n (%)", "setting": "[5]; [9]", "result": "9 (25) n (%)"}, {"measurement": "Objective response rate, % (95% CI)", "setting": "[5]; [9]", "result": "27.7 (15.7-44.1) %"}, {"measurement": "ORRb, % (95% CI)", "setting": "[2]", "result": 45, "unit": "%"}, {"measurement": "median OS, months (95% CI)", "setting": "[2]", "result": "36.9 (28.3—NR) months"}, {"measurement": "median PFS, months (95% CI)", "setting": "[2]", "result": "6.9 (5.1-10.2) months"}]}
